The values below come from US20080146555A1, “Uses of Kinase Inhibitors and Compositions Thereof” (GPC Biotech, Inc, priority 2004, published 2008).

The test system of one test is HCT-116 cells. Kind of test: Calcein AM viability assay, HCT-116. The class given is cell-based. The settings on record: Homo sapiens. The procedure, abridged: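 Cells (HCT-116 1,000, IMR90 4,000 per well) adhered overnight, then received 7 doses from 0 to 250 nM for 72 h at 37 °C. Viability read as calcein fluorescence after 75 min with Calcein AM; IC50 values, with protein-adjusted values also obtained in HCT-116.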

In another test the test system is A2780. Kind of test: Calcein AM viability assay, A2780. The class given is cell-based. The settings on record: Homo sapiens. The procedure:
Analogous cell viability assays against other cell lines were conducted as above. […] Protocol for the Calcein AM viability assay.
HCT-116 or IMR90 cells were recovered from sub-confluent plates by trypsinization and 1,000 or 4,000 cells, respectively, were plated in 24-well dishes and incubated overnight at 37° C., 5% CO2. HCT-116 cells were cultured in RPMI-1640, 10% FCS, and IMR90 cells were cultured in Minimum Essential Medium-alpha, 10% FCS. After overnight incubation to allow adherence, the media was aspirated from each well and replaced with media containing a test compound at a concentration from 0 to 250 nM, spanning a total of 7 doses. The plates were returned to the incubator and cultured for an additional 72 hours (3 days). […] After 72-hours incubation with the test compound, the cells were washed twice with 1×PBS, taking special care to remove all residual buffer.
A 5 μM Calcein AM solution was prepared by dissolving a 50 μg aliquot of Calcein (Molecular Probes catalog #C3100) in 50 μl DMSO. After the Calcein had completely dissolved (10 minutes at room temperature), it was diluted into 10 ml PBS. Calcein/PBS (0.5 ml) was added to each well. The plates were incubated for 75 minutes at 37° C. (protected from light) and the fluorescent signal was read on a fluorescent plate reader (excitation 485/20 and emission 530/25).

In another test the target is T1, JNK3 (Homo sapiens, UniProt P53779).
T1 construct: purchased Upstate 14-501
T1 sequence (P53779 39-464): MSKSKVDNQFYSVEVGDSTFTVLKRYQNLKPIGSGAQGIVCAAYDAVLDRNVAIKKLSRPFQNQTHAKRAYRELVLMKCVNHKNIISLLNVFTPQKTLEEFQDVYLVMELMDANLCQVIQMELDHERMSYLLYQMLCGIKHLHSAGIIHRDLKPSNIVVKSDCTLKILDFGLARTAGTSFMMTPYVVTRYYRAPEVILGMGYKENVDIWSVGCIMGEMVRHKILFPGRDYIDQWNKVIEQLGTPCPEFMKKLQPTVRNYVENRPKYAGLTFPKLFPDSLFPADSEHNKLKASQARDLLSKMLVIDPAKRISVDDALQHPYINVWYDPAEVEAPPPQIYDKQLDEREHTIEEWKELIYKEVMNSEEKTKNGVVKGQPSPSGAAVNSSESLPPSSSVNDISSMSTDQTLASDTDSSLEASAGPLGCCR
Kind of test: JNK3 kinase assay. The class given is biochemical. The procedure:
• 1. 10× Reaction Buffer: 500 mM Tris-HCl pH 7.5, 1 mM EGTA, 1% 2-mercaptoethanol. • 2. Enzyme Dilution Buffer (EDB): 50 mM Tris-HCl pH 7.5, 0.1 mM EGTA, 0.1% 2-mercaptoethanol, 1 mg/ml BSA, 0.03% Brij-35. • 3. JNK3/SAPK1b, active: Dilute to 4-24 ng/μl with EDB. Use 2.5 μl per assay point. • 4. ATF2 (amino acids 19-96) (Catalog #12-367): Prepare a 1.08 mg/ml stock. Use 2.5 μl per assay point for a final concentration of 3 μM per assay point. • 5. [γ-^32P]ATP: Stock 1 mCi/100 μl (3000 Ci/mmol, obtained from PerkinElmer, Cat. # BLU002A). Make 10 μl aliquots (100 μCi/vial). Before starting the assay, dilute an aliquot to 1 μCi/μl with 90 μl of 75 mM MgCl2 and 500 μM cold ATP in 20 mM MOPS, pH 7.2, 25 mM β-glycerol phosphate, 5 mM EGTA, 1 mM sodium orthovanadate, 1 mM dithiothreitol.
• 1. Add 2.5 μl of 10× Reaction Buffer per assay. • 2. Add 2.5 μl of ATF2 (amino acids 19-96). • 3. Add 2.5 μl (10-60 ng) JNK3/SAPK1b, active. • 4. Add 7.5 μl of sterile, distilled water. • 5. Add 10 μl of the diluted [γ-^32P]ATP mixture. • 6. Incubate for 10 minutes at 30° C. • 7. Transfer a 20 μl aliquot onto the center of a 2 cm×2 cm P81 paper. • 8. Wash the assay squares three times for 5 minutes with 0.75% phosphoric acid. • 9. Wash the assay squares once for 5 minutes with acetone. • 10. Transfer the assay squares to vial and add 5 ml scintillation cocktail. • 11. Read in scintillation counter. Compare cpm of enzyme samples to cpm of control samples that contain background control.

The next test deals with CEM/C2. Kind of test: SRB cytotoxicity, camptothecin resistant cells. The format is cell-based, human. To be noted: for IC50: Homo sapiens, CEM/C2, 72 h, SRB. How it is done:
In these experiments, the P-glycoprotein expressing NCI-Adr resistant subline (Vickers et al., 1989. Mol Endocrinology 3 (1):157-164) was used. […] Briefly, cells were plated in 96 well dishes 24 hours prior to compound addition. Where noted, they were exposed to verapamil for 4 hours prior to compound addition and then throughout the treatment period (72 hours). The assay was terminated with the addition of cold TCA to a final concentration of 10% and the plates were incubated for one hour at 4° C. The plates were then washed 5 times with water and 100 μl of a Sulforhodamine B solution (4%) was added to each well. The plate was then incubated for 10 minutes at room temperature before removal of unbound dye by washing with 1% acetic acid.
The Camptothecin resistant CEM/C2 cells were derived from the T lymphoblastoid leukemia cell line CCRF/CEM by selection in the presence of Camptothecin in vitro (Kapoor et al., 1995. Oncology Research 7; 83-95, ATCC).
The effects of A37 and B16 were evaluated in the CCRF/CEM and CEM/C2 cells using the same SRB assay as described above, with 72-hour drug exposure.

Another test concerns A129 cp80. Put plainly: SRB cytotoxicity, cisplatin resistant cells. The format is cell-based, human. To be noted: for IC50: Homo sapiens, 72 h, SRB.
The mark [1] stands for this setting: HCT-116, non-protein adjusted, Table 4, read-out: HCT-116 viability IC50.
The mark [2] stands for this setting: HCT-116, text b600, read-out: HCT-116 protein-adjusted viability IC50.
Where [3] appears, read: HCT-116, text b600, read-out: HCT-116 viability IC50.
Where [4] appears, read: kinase panel, 10 μM ATP, read-out: JNK3 IC50.
The mark [5] stands for this setting: read-out: MAPK10 Inhibition (IC50).

SMILES strings stand for the structures. Structures can show the parent of a compound that is named as a salt. Where two headings read alike, the source gives them in different places.

Turning to `CC(C)N1CCN(C(=O)COc2ccc(-c3n[nH]c4c3C(=O)c3c(NC(=O)NN5CCOCC5)cccc3-4)cc2)CC1` [Compound A37], the IC50 (in general, the concentration at which inhibition is half-maximal) in the test with HCT-116 cells (setting [1]) is below 100 nM; in the test on HCT-116 cells (setting [2]), below 500 nM; in the test with HCT-116 cells (setting [3]) it was below 50 nM; in the test with A2780, below 10 nM; at JNK3 (setting [4]) it was 10 to 100 nM; at JNK3 (setting [5]), below 50 nM. Besides, the results for the IC50 in the test on CEM/C2 and in the test on A129 cp80 were 15.3 nM and 4 nM, respectively. The “RR (relative resistance) CEM/C2 vs CEM” value in the test with CEM/C2 was 0.72. The “RR (relative resistance) A129 cp80 vs A129” value in the test with A129 cp80 came to 0.7.
In the case of `COCCN1CCN(Cc2ccc(-c3n[nH]c4c3C(=O)c3c(NC(=O)NN5CCOCC5)cccc3-4)cc2)CC1` [Compound B16, N-[3-(4-{[4-(2-methoxyethyl)piperazinyl]methyl}phenyl)-4-oxoindeno[2,3-d]pyrazol-5-yl](morpholin-4-ylamino)carboxamide dihydrochloride], the 50% inhibitory concentration (IC50) was below 10 nM in the test on HCT-116 cells (setting [1]); below 500 nM in the test with HCT-116 cells (setting [2]); below 10 nM in the test on HCT-116 cells (setting [3]); below 10 nM in the test on A2780; below 100 nM at JNK3 (setting [4]); below 50 nM on JNK3 (setting [5]). The figures for the half-maximal inhibitory concentration (IC50) in the test with CEM/C2 and with A129 cp80 were 25.3 nM and 4.7 nM, respectively. In addition, the “RR (relative resistance) CEM/C2 vs CEM” value in the test with CEM/C2 turned out to be 1.01. Also, the “RR (relative resistance) A129 cp80 vs A129” value in the test with A129 cp80 is listed as 0.5.
